Results published in patent publication US20120213707A1, “Riboflavin Based Aerosol and Use as Placebo in Trials” (MPEX PHARMACEUTICALS, INC., priority 2009, published 2012).

Assays:
[1] = Toxicokinetics in dogs: plasma riboflavin 5′-phosphate and metabolite riboflavin after aerosolized doses for 28 days; type: in vivo, Dog (Canis familiaris)
Experimental: (§1) Duration of treatment: 28 days. Test system: Dog (Canis familiaris); strain: Beagle.
A series of 9 blood samples (approximately 2.0 mL each) were removed from each dog on each of Days 1 and 28 of the treatment period. For this purpose, each dog was bled by venipuncture and the samples were collected into tubes containing the anticoagulant, Sodium Heparin. Tubes were placed immediately on wet ice pending processing within 30 minutes of collection. On each occasion, samples were collected at pre-dose, immediately post exposure (IPD), 15 and 30 minutes, 1, 2, 4, 6 and 24 hours post exposure. Following collection, the samples were centrifuged (approximately 4° C.) and the resulting plasma was recovered and stored frozen at ITR (approximately −20° C.) in labeled tubes protected from light pending shipment (on dry ice).

Beagle dogs = experiment: 28-day aerosolized liquid inhalation (oronasal) toxicity study in Beagle dogs; type: in vivo
Description: The objective of the study was to determine the toxicity and toxicokinetic profile of the test article, Riboflavin 5′-phosphate, following inhalation (oronasal) administration to dogs for 28 consecutive days.
Test article: riboflavin 5′-phosphate sodium salt hydrate; alternate identity: vitamin B2 phosphate; description: yellow crystals; potency: 74%. Vehicle article: saline (0.9% (w/v) NaCl for injection); description: clear colorless solution. Exposure method: inhalation by oronasal face mask exposure.
(§2) The test (0.5 mg/mL, 2.0 mg/mL, 5.0 mg/mL) and/or vehicle control formulations (0 mg/mL) for each group were prepared fresh daily on each day by dissolving the test article in saline. All prepared test article formulations were protected from light and kept at room temperature (RT).
as §1
(§3) The aerosol was produced by metering the flow of the test and control article formulations to 3 clinical nebulizers (Sidestream). The aerosol produced was discharged through a 40 mm diameter tube into a flow-past inhalation exposure system. The airflow rate through the exposure system was monitored and recorded manually during the aerosol generation. Airflow to the exposure system was controlled by the absolute volume of air supplying the aerosol generators using variable area flow meters. Control of the aerosol exhaust flow from the animal exposure system was achieved using an exhaust valve. The system provided a minimum of 6 L/min of aerosol to each animal exposure position and the inlet and outlet airflows were balanced to ensure that there was no dilution of the generated aerosol by air drawn from the environment. Any minor variations in flow were buffered by a balloon reservoir. An equal delivery of aerosol to each exposure position was achieved by employing a distribution network that was identical for each individual exposure position attached to the system.
Mortality checks were performed once daily during the acclimation and pre-treatment periods, and twice a day (am and pm) during the treatment period of the study.
Cage-side clinical signs (ill health, behavioral changes etc.) were recorded for all animals once daily during the acclimation period and twice daily (pre-exposure and post-exposure) during the treatment period except on detailed clinical examination days. A detailed clinical examination of each dog was performed (replacing a cage-side clinical sign observation in the morning) at least once pretreatment, one day prior to Day 1, weekly during the treatment period and before necropsy.
Body weights were recorded for all animals at least once prior to group assignment, and approximately one week prior to initiation of treatment. Body weights were recorded for all animals one day prior to Day 1 and weekly during the treatment period, as well as terminally.
Individual daily food intake was recorded for all animals during the last week of the pretreatment period and throughout the treatment period.
Funduscopic (indirect ophthalmoscopy) and biomicroscopic (slit lamp) examinations were performed for all animals, once during the pre-treatment period and during Week 4 of the treatment period.
Electrocardiograms (limb leads I, II and III, and augmented leads aVR, aVL and aVF) were obtained for all dogs once during the pre-treatment period and at least 90 minutes (between 90-120 minutes) postexposure on Days 1 and during Week 4 of the treatment period. In addition, indirect blood pressure was measured on the same occasions as ECG using a tail cuff. The tracings were assessed for gross changes indicative of cardiac electrical dysfunction and the potential presence of abnormalities involving heart rate (lead II), sinus and atrioventricular rhythm or conductivity were determined. Heart rate, PR interval, QRS duration, QT and QTc intervals values were tabulated for incorporation into the study report. […]

[2] = Stability of dosing formulations in saline; type: physicochemical; conditions: saline formulations 0.5-5.0 mg/mL, refrigerated at least 48 hours or room temperature on day of preparation
Experimental: as §2
Analyses determined that all formulations were within acceptance criteria ranges (±10%). The formulation concentrations ranged between 94.4 and 106.4% of nominal concentrations and therefore considered acceptable.
Analyses determined that all formulations were within acceptance criteria ranges (±10%). The formulation concentrations ranged between 94.9 and 104.5% of nominal concentrations and were therefore considered acceptable. […]

[3] = Aerosol particle size distribution, dog oronasal exposure system (7-Stage Mercer Cascade Impactor); type: physicochemical
Description: as §3
Determinations of aerosol concentration, particle size distribution, oxygen concentration, relative humidity and temperature were performed on test atmosphere samples collected from a representative port of the exposure system, with a collection sample flow-rate of 1 L/min. The sample flow rates were precisely controlled using variable area flow meters that were calibrated before use using a primary airflow calibrator. The absolute volume of each aerosol concentration sample was measured using a wet type gas meter.
The distribution of particle size in the generated aerosols for Groups 2 to 4 were measured weekly during the treatment period by collecting samples into a 7-Stage Mercer Cascade Impactor and the particle size of aerosolized Riboflavin 5′-phosphate was determined using a validated analytical. The distribution of particle size in the generated aerosols for Group 1 were estimated once weekly by gravimetric determination. The MMAD and the Geometric Standard Deviation (GSD) were calculated based on the results obtained from the impactor using a log-probit transformation.

[4] = Group 2 Low Dose, 0.5 mg/mL formulation
[5] = Group 3 Mid Dose, 2.0 mg/mL formulation
[6] = Group 4 High Dose, 5.0 mg/mL formulation

For `Cc1cc2nc3c(=O)[nH]c(=O)nc-3n(C[C@H](O)[C@H](O)[C@H](O)COP(=O)(O)O)c2cc1C` [riboflavin 5′-phosphate], the “accumulation following repeated dosing” value ([1]; 28 days) was “no accumulation”, the “gender related difference of riboflavin plasma exposure” value ([1]; Day 1, single administration) was “no observed apparent gender related difference” and the “dose dependence of riboflavin plasma exposures (Cmax and AUC(0-T))” value ([1]; both sexes, Day 1) was “increased as a function of the administered doses”. For the same compound, the “dose dependence of riboflavin plasma exposures (Cmax and AUC(0-T))” value ([1]; both sexes, Day 28) was “increased as a function of the administered doses”, the “dose proportionality of riboflavin exposures (Cmax and AUC(0-T))” value ([1]; both sexes, overall) was “appeared to be dose proportional” and the “gender difference in riboflavin exposure” value ([1]; overall) was “no gender difference in riboflavin exposure”. The “riboflavin 5′-phosphate concentrations in plasma of treated animals” value ([1]; single or repeated exposures) was “detected in only a single treated animal”, the “No Observed Effect Level (NOEL)” value (Beagle dogs; Beagle dogs, oronasal inhalation up to 60 minutes/day, 28 consecutive days, high-dose group) was 1.341 mg/kg/day and the tolerability (Beagle dogs; beagle dogs, inhalation exposure 28 days) was “well tolerated”. The blood pressure (Beagle dogs; dog, in vivo) was “no changes in blood pressure that were considered related to treatment”, the clinical chemistry (Beagle dogs; dog, in vivo) was “no changes noted in clinical chemistry parameters that were considered to be treatment-related” and the clinical signs (Beagle dogs; dog, in vivo) was “no clinical signs related to treatment”. The coagulation times (Beagle dogs; dog, in vivo) was “unaffected by treatment”, the electrocardiogram wave forms (Beagle dogs; dog, in vivo) was “unaffected by treatment” and the food consumption (Beagle dogs; dog, in vivo) was “no changes noted in food consumption that were considered to be treatment-related”. For the same compound, the hematology (Beagle dogs; dog, in vivo) was “no changes noted in hematology parameters that were considered to be treatment-related”, the macroscopic findings (Beagle dogs; dog, in vivo) was “no macroscopic findings that were considered to be test article related” and the microscopic findings (Beagle dogs; dog, in vivo) was “no evidence of test article-related histopathological finding”. The ophthalmology (Beagle dogs; dog, in vivo) was “no ocular changes noted that were considered to be treatment-related”, the organ weights (Beagle dogs; dog, in vivo) was “slight increase in spleen weight” and the “respiratory parameters (respiratory rate, tidal volume and minute volume)” value (Beagle dogs; dog, in vivo) was “no changes in respiratory parameters evaluated”. The urinalysis (Beagle dogs; dog, in vivo) was “no changes in any of the urinalysis parameters evaluated that were considered affected by treatment”, the adverse effects (Beagle dogs; dog, in vivo, 1.34 mg/kg/day) was “no adverse effects were observed” and the mortality (Beagle dogs; dogs, 28 days inhalation) was “no premature deaths”. The formulation stability ([2]; dog study) was “stable”, the formulation stability ([2]; rat study) was “stable” and the “% of particles <3.1 μm” value [3, 4] was 91.1%. For the same compound, the MMAD [3, 4] was 1.1 μm, the “% of particles <3.1 μm” value [3, 5] was 93.3% and the MMAD [3, 5] was 1.1 μm. The “% of particles <3.1 μm” value [3, 6] was 87.2% and the MMAD [3, 6] was 1.2 μm.
